Test results: paper PMC9141242, “Enhanced Soluble Expression of Linoleic Acid Isomerase by Coordinated Regulation of Promoter and Fusion Tag in Escherichia coli” (Foods, 2022)

Target: T1, MBP-PAI (Cutibacterium acnes, UniProt Q6A8X5)
T1 construct: gene PPA1039; PAI (about 50 kDa); synthesized gene in pET-24a(+), E. coli BL21(DE3)
T1 sequence (Q6A8X5 1-424): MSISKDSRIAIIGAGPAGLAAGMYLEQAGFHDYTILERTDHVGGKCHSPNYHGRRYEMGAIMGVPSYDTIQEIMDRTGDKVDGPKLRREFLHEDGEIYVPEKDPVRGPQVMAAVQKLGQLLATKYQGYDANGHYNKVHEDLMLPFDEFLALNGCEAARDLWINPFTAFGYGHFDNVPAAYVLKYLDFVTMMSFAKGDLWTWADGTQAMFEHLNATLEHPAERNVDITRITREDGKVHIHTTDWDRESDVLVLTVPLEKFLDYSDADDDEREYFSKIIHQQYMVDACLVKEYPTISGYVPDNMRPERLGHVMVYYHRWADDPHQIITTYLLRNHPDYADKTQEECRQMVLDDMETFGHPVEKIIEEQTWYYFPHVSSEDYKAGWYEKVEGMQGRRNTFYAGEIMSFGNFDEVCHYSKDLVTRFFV
Assay: spectrophotometry at […] nm, CLA formation, Lineweaver-Burk
Type: biochemical
Details: optimal conditions (37 °C, pH 7.5, 1 mmol/L Tween-20); LA 71-1428 μM; MBP tag not cleaved; apparent

CCCCC/C=C\C/C=C\CCCCCCCC(=O)O [linoleic acid]
Km: 254 µM
